In patent publication US11155523B2, “Biphenyl compound as CCR2/CCR5 receptor antagonist” (Medshine Discovery Inc., priority 2016, dated 2021):

Tests used:
[1] = Comparative pharmacokinetics study in rats; format: in vivo, SD male rats; conditions: rat; for clearance / half-life / bioavailability: male, Sprague-Dawley (SD), plasma; for clearance / half-life / Area Under a Curve (0-inf): intravenous injection 2 mg/kg; for bioavailability: oral 10 mg/kg vs intravenous 2 mg/kg; for Area Under a Curve (0-inf/0-last) / Peak time: oral 10 mg/kg; for Oral plasma system exposure (AUC0-inf) as multiple of the reference compound / Plasma clearance as percent of that of the reference compound: relative to Cenicriviroc
Method: Experimental Example 2: Comparative Pharmacokinetics Study in Rats
(§1) SD male rats were used as the test animals in this study. The drug concentrations in plasma of the rats by intravenous or oral administration of test compounds WX017, WX047, WX079, WX088 and reference compound at different time points were quantitatively determined by LC/MS/MS, which were used to evaluate the pharmacokinetic profile of the two test drugs in rats.
A clear solution of the test compound was injected into SD rats via the tail vein (overnight fasting, 7-10 weeks old), and the test compound was orally administered to the SD rats (overnight fasting, 7-10 weeks old). Approximately 200 μL of blood was collected from the jugular vein or tail vein of the animals 0.0833, 0.25, 0.5, 1, 2, 4, 6, 8 and 24 hours after administration, and was placed in an anticoagulant tube containing EDTA-K2. The plasma was collected by centrifugation at 3000 g for 15 minutes at 4° C. The plasma concentration was determined by LC-MS/MS. The pharmacokinetic parameters were calculated by the non-compartment model linear logarithmic trapezoidal method using WinNonlin™ Version 6.3 (Pharsight, Mountain View, Calif.) pharmacokinetic software.

[2] = Comparative pharmacokinetics study in cynomolgus monkeys; format: in vivo; conditions: cynomolgus monkey
Source text: Experimental Example 3: Comparative Pharmacokinetics Study in Cynomolgus Monkeys
as §1, with “Male cynomolgus monkeys” for “SD male rats”, “cynomolgus monkeys” for “rats”, “compound WX047” for “compounds WX017, WX047, WX079, WX088”, “cynomolgus monkeys.” for “rats.”
A clear solution of the test compound was injected into cynomolgus monkeys via t the cephalic or saphenous vein (overnight fasting, 2.5-7 kg), and the test compound was intragastrically administered to the cynomolgus monkeys (overnight fasting, 7-10 weeks old). Approximately 400 μL of blood was collected from the peripheral vein of the animals 0.0833, 0.25, 0.5, 1, 2, 4, 6, 8, 12 and 24 hours after administration, and transferred into an commercial centrifuge tube containing EDTA-K2*2H2O anticoagulation. The plasma was collected by centrifugation at 3000 g for 10 minutes at 4° C. The plasma concentration was determined by LC-MS/MS. The pharmacokinetic parameters were calculated by the non-compartment model linear logarithmic trapezoidal method using WinNonlin™ Version 6.3 (Pharsight, Mountain View, Calif.) pharmacokinetic software.

CYP1A2 = biological target: T1, CYP1A2 (Homo sapiens, UniProt P05177); test: Inhibition of human liver microsomal CYP1A2 (phenacetin probe); format: in vitro ADME; conditions: human liver microsomes
T1 construct: from tissue; host or cells: human liver microsomes
T1 sequence (P05177 1-516): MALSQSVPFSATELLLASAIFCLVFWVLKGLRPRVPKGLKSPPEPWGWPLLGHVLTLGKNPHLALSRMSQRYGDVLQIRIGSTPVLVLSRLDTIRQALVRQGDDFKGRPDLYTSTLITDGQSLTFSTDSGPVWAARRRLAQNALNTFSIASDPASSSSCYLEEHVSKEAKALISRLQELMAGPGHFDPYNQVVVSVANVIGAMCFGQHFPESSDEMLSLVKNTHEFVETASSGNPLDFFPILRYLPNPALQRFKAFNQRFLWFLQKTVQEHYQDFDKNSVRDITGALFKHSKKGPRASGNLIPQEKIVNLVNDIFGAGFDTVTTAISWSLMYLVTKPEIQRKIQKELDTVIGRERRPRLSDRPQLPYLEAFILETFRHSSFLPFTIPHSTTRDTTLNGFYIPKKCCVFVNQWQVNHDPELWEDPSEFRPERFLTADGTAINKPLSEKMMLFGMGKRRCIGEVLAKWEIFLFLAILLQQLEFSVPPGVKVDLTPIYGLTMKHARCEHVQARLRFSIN
Method: (§2) Experimental Example 4 Inhibition Effect on the Activity of Human Liver Microsomal Cytochrome P450 Isoezymes (CYP1A2, CYP2C9, CYP2C19, CYP2D6 and CYP3A4)
(§3) A total of 5 specific probe substrates for CYP's five isozymes, Phenacetin (CYP1A2), Diclofenac (CYP2C9), […] (S)-Mephenytoin, CYP2C19), Dextromethorphan (CYP2D6) and Midazolam (CYP3A4) were incubated with human liver microsomes and test compounds, respectively, and reduced nicotinamide adenine dinucleotide phosphate (NADPH) was added to initiate the reaction. After the reaction, the sample was processed and liquid chromatography tandem mass spectrometry (LC-MS/MS) was used to quantitatively detect the […] metabolites produced by the specific substrate, Acetaminophen and 4′-hydroxydiclofenac, 4′-hydroxymephenytoin, Dextrorphan and 1′-hydroxymidazolam, in order to calculate the corresponding half maximal inhibitory concentration (IC50).

CYP2C9 = biological target: T2, CYP2C9 (Homo sapiens, UniProt P11712); test: Inhibition of human liver microsomal CYP2C9 (diclofenac probe); format: in vitro ADME; conditions: human liver microsomes
T2 construct: from tissue; host or cells: human liver microsomes
T2 sequence (P11712 whole entry): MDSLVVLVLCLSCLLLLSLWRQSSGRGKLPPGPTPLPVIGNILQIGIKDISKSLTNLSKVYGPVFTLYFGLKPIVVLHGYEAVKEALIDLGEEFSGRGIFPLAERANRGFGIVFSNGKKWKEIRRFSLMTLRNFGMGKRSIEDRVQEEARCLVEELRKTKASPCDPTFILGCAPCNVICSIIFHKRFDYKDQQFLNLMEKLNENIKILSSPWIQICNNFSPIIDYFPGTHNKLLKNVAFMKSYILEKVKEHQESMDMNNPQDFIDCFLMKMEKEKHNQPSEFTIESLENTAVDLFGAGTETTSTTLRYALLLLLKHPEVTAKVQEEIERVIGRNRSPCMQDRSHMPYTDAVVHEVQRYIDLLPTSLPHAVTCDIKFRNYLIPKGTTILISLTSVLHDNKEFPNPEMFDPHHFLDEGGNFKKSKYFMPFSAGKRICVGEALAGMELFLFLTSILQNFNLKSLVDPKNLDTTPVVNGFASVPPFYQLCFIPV
Method: as §2, §3

CYP2C19 = biological target: T3, CYP2C19 (Homo sapiens, UniProt P33261); test: Inhibition of human liver microsomal CYP2C19 ((S)-mephenytoin probe); format: in vitro ADME; conditions: human liver microsomes
T3 construct: from tissue; host or cells: human liver microsomes
T3 sequence (P33261 whole entry): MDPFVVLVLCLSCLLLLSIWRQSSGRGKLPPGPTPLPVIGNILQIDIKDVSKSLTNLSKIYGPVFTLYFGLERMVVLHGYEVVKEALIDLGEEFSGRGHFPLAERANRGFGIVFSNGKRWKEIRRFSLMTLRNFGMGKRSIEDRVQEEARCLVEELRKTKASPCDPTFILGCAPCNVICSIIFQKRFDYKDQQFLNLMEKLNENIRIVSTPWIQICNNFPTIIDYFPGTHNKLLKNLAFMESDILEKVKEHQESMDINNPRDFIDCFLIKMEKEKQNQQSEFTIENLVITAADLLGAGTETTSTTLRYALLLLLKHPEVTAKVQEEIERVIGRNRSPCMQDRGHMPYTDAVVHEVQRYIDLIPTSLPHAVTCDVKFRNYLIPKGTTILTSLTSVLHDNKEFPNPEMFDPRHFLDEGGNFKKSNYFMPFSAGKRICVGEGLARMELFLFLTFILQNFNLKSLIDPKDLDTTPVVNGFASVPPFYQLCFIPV
Method: as §2, §3

CYP2D6 = biological target: T4, CYP2D6 (Homo sapiens, UniProt P10635); test: Inhibition of human liver microsomal CYP2D6 (dextromethorphan probe); format: in vitro ADME; conditions: human liver microsomes
T4 construct: from tissue; host or cells: human liver microsomes
T4 sequence (P10635 whole entry): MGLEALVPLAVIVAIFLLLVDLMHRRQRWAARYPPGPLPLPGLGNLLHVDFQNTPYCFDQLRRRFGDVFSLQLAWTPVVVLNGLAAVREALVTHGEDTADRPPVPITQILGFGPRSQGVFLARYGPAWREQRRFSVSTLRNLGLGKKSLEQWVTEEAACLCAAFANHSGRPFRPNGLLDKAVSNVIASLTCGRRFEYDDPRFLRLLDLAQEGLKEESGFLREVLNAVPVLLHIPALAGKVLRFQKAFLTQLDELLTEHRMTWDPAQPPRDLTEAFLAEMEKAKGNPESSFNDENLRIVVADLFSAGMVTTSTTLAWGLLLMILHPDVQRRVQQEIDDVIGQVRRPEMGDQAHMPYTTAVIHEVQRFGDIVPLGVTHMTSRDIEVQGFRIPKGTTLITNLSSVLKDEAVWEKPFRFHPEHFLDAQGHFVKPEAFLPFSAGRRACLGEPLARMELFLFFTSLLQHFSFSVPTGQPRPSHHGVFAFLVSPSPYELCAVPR
Method: as §2, §3

CYP3A4 = biological target: T5, CYP3A4 (Homo sapiens, UniProt P08684); test: Inhibition of human liver microsomal CYP3A4 (midazolam probe); format: in vitro ADME; conditions: human liver microsomes; for IC50: probe midazolam
T5 construct: from tissue; host or cells: human liver microsomes
T5 sequence (P08684 whole entry): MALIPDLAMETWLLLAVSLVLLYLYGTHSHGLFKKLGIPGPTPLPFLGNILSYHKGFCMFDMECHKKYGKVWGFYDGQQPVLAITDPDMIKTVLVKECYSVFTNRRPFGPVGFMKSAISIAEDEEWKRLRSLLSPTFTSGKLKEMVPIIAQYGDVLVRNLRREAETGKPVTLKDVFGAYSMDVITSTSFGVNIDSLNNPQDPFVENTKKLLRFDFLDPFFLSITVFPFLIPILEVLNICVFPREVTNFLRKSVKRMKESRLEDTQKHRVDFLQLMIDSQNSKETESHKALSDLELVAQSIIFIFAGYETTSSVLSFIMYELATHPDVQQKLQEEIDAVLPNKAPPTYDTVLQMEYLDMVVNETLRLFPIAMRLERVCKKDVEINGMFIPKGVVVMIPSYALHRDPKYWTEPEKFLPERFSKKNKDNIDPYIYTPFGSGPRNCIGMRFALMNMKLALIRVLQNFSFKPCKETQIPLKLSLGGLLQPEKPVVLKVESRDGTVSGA
Method: as §2, §3

CCR2 = biological target: T6, CCR2 (Homo sapiens, UniProt P41597); test: CCR2 in vitro test: intracellular calcium signal detected by FLIPR; format: cell-based; conditions: HEK293 cells expressing CCR2, agonist MCP-1 at EC80, calcium signal
T6 construct: expressed in transfected cells; host or cells: HEK293, clone C7, passage P6
T6 sequence (P41597 whole entry, species assumed): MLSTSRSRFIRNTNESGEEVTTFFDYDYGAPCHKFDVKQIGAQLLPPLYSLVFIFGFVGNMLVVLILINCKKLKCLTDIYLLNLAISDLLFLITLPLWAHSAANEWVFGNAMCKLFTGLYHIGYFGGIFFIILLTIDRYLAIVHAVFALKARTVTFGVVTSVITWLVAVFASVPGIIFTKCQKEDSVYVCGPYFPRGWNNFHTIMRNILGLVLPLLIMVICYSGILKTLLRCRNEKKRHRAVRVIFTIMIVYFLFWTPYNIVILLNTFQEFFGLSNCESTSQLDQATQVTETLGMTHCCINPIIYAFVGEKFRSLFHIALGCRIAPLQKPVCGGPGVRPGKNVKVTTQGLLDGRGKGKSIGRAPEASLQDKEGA
Method: (§4) Experimental Example 1: CCR2/CCR5 In Vitro Test
(§5) The intracellular calcium signal was detected by FLIPR, and the IC50 value of the compound was used as an index to evaluate the inhibitory effect of the compound on CCR2 and CCR5 receptors.
(§6) 1. Cell line: The cells were inoculated and incubated in a 5% CO2 incubator at 37° C. overnight.
(§7) CCR2/CCR5 density: 1 M (20 k/well)
(§8) 2. Reagents: Fluo-4 Direct, (Invitrogen, Cat #F10471)
(§9) The compound was dissolved in DMSO to prepare a 10 mM solution, and the compound solution was placed in a nitrogen box.
(§10) Agonist reference compounds:
(§11) Preparation of probenecid in FLIPR assay buffer: 1 mL of FLIPR assay buffer was added to […] of probenecid to prepare a 250 mM solution, which is prepared fresh daily.
(§12) 2× (8 μM) Fluo-4 Direct™ Loading Buffer (per 10 mL) • Thaw a bottle of Fluo-4 Direct™ crystal (F10471). • Add 10 mL of FLIPR assay buffer to the vial. • Add 0.2 mL of probenecid to each 10 mL of Fluo-Direct. The final concentration of the assay was 2.5 mM. • Rotate it and place for >5 minutes (in absence of light). • Prepare fresh daily.
(§13) MCP-1 was diluted in FLIPR assay buffer 1:2 into 10 points, starting at 0.5 uM (final 100 nM). RANTES was diluted in FLIPR assay buffer 1:3 into 10 points, starting at 0.5 uM (final 100 nM). 20 uL of serially diluted compound buffer was added to each well of the DRC plate according to the compound plate map.
(§14) Standard compound was diluted in DMSO 1:3 into 11 points, starting at 1 mM. Test compound was diluted in DMSO 1:3 into 11 points, starting at 2 mM. 250 nL of compound solution was transferred into a cell plate using Echo (Greiner #781946).
(§15) (c) Take the cell plate out of the incubator, and gently dispense 20 uL of 2× Fluo-4 Direct wash-free loading buffer into a 384-well cell culture plate using a pipette. The final cell plate is 40 μL in volume.
(§16) (d) Incubate for 50 minutes at 37° C. under 5% CO2, and for 10 minutes at room temperature.
(§17) (e) Take the cell plate out of the incubator, and place it in FLIPR. Place the composite plate and the tip box in FLIPR.
(§18) (f) For DRC plate: • 1) Run the program on FLIPRTETRA. • 2) Read the fluorescent signal. • 3) Transfer 10 μL of compound from the DRC plate to the cell plate. • 4) Read the fluorescent signal. • 5) Calculate the “maximum−minimum” from Read 90 to the maximum allowed. Use FLIPR to calculate the EC80 value of each cell line. • 6) Prepare 5×EC80 concentration of the agonist reference compound.
(§19) (g) For the composite plate (1-add): • 1) Run the program on FLIPRTETRA. • 2) Transfer 10 μl, of 5×EC80 concentration of the agonist reference compound from the composite plate to the cell plate. • 3) Read the fluorescent signal. • 4) Calculate the “maximum−minimum” from Read 90 to the maximum allowed.
(§20) (h) Analyze the data using Prism, and calculate the IC50 value of the compound.

CCR5 = biological target: T7, CCR5 (Homo sapiens, UniProt P51681); test: CCR5 in vitro test: intracellular calcium signal detected by FLIPR; format: cell-based; conditions: HEK293 cells expressing CCR5, agonist RANTES at EC80, calcium signal
T7 construct: expressed in transfected cells; host or cells: HEK293, clone C13, passage P4
T7 sequence (P51681 whole entry, species assumed): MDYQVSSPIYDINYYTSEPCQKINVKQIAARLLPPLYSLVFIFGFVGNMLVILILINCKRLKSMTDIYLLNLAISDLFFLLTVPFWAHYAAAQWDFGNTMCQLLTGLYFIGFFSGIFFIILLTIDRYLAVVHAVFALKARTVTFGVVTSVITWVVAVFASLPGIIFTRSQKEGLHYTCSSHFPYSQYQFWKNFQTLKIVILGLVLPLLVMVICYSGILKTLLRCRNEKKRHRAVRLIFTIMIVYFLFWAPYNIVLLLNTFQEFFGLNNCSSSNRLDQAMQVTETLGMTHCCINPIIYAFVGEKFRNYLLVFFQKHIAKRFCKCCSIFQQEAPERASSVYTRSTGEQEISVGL
Method: as §4, §5, §6, §7, §8, §9, §10, §11, §12, §13, §14, §15, §16, §17, §18, §19, §20

[3] = system: human liver microsomal cytochrome P450 isoenzymes; test: Inhibition of human liver microsomal cytochrome P450 isoenzymes, overall conclusion; format: in vitro ADME; conditions: human liver microsomes
Method: as §2, §3

[4] = male, plasma, intravenous injection 1 mg/kg

## CCCCOCCOc1ccc(-c2ccc3c(c2)/C=C(/C(=O)Nc2ccc([S@@+]([O-])Cc4cncn4CCC)cc2)CCCN3CC(C)C)cc1 [(Cenicriviroc), Cenicriviroc, reference compound]
[1]
  clearance: 1.57 mL/min/kg
  half-life: 329 min
  bioavailability: 20.4%
  Area Under a Curve (0-inf): 31.344 µM·h
  Area Under a Curve (0-inf/0-last): 31.956 µM·h
  Peak time: 4.0 h
[2]; intravenous injection 1 mg/kg
  Area Under a Curve (0-inf): 2766 nM·h
[2]; oral 3 mg/kg
  Area Under a Curve (0-inf/0-last): 424 nM·h
  Peak time: 2.0 h
[2]; [4]
  clearance: 8.74 mL/min/kg
  half-life: 322 min
[2]; male, plasma, oral 3 mg/kg vs intravenous 1 mg/kg
  bioavailability: 5.11%
CYP1A2
  IC50: > 50 µM
CYP2C9
  IC50: > 50 µM
CYP2C19
  IC50: > 50 µM
CYP2D6
  IC50: > 50 µM
CYP3A4
  Inhibitory effect on CYP3A4 (conclusion in words): weak inhibitory effect
  IC50: 5.6 µM

## CCCCOCCOc1ccc(-c2ccc(OC)c(/C=C/C(=O)Nc3ccc([S@@+]([O-])Cc4cncn4CCC)cc3)c2)cc1 [WX017]
CCR2
  IC50: 13 nM
CCR5
  IC50: 7.9 nM
[1]
  clearance: 0.4 mL/min/kg
  half-life: 221 min
  bioavailability: 48.9%
  Area Under a Curve (0-inf): 135.732 µM·h
  Area Under a Curve (0-inf/0-last): 331.778 µM·h
  Peak time: 1.5 h
  Oral plasma system exposure (AUC0-inf) as multiple of the reference compound: 10.4 times
  Plasma clearance as percent of that of the reference compound: 25%

## CCCCOCCOc1ccc(-c2ccc(OC)c(/C=C/C(=O)Nc3ccc([S@+]([O-])Cc4c(C)ncn4CC)cc3)c2)cc1 [WX079]
CCR2
  IC50: 5.6 nM
CCR5
  IC50: 5.8 nM
[1]
  clearance: 0.224 mL/min/kg
  half-life: 568 min
  bioavailability: 32.6%
  Area Under a Curve (0-inf): 255.072 µM·h
  Area Under a Curve (0-inf/0-last): 404.142 µM·h
  Peak time: 3.0 h
  Oral plasma system exposure (AUC0-inf) as multiple of the reference compound: 12.6 times
  Plasma clearance as percent of that of the reference compound: 14%
CYP1A2
  IC50: > 50 µM
CYP2C9
  IC50: > 50 µM
CYP2C19
  IC50: > 50 µM
CYP2D6
  IC50: > 50 µM
CYP3A4
  IC50: 28.3 µM
[3]
  Risk of inhibiting isoenzymes of human liver microsomal cytochrome P450 (conclusion in words): no risk on inhibiting five isoenzymes

## CCCCOCCOc1ccc(-c2cc(F)c(OC)c(/C=C/C(=O)Nc3ccc([S@+]([O-])Cc4c(C)ncn4CC)cc3)c2)cc1 [WX088]
CCR2
  IC50: 3.5 nM
CCR5
  IC50: 4.3 nM
[1]
  clearance: 0.328 mL/min/kg
  half-life: 398 min
  bioavailability: 15.7%
  Area Under a Curve (0-inf): 150.423 µM·h
  Area Under a Curve (0-inf/0-last): 122.101 µM·h
  Peak time: 3.0 h
  Oral plasma system exposure (AUC0-inf) as multiple of the reference compound: 3.8 times
  Plasma clearance as percent of that of the reference compound: 21%
